What is called IC50 is the concentration that gives 50% inhibition. As usually defined, the pIC50 is the negative decadic logarithm of the IC50, by convention in mol/L.

Experimental findings from US20060211724A1, “Hiv integrase inhibitors” (priority 2003, published 2006) are described below.

The target of one assay is T1, Recombinant His-tagged HIV-1 integrase (Human immunodeficiency virus type 1 group M subtype B, UniProt P12497, C1427S/F1332K).
T1 construct: Recombinant His-tagged HIV-1 integrase; His; made in house; host or cells: E. coli BL21(DE3)
The experiment in a line: Enzymatic integrase assay (oligonucleotide-based DNA strand transfer, ELISA). In kind it is biochemical.
Settings: not given
The procedure: Enzymatic Integrase Assay
The activity of HIV-integrase was determined using an oligonucleotide-based assay in which the DNA strand transfer by preformed complexes of integrase and processed DNA was measured by means of an enzyme-linked immunosorbent assay (ELISA) in microtiter plate format. Recombinant His-tagged HIV-1 integrase was produced in the E. coli strain BL21(DE3) from the plasmid pINSD.His.sol (available from NTH) after induction with isopropyl-β-D-thiogalactopyranoside (IPTG) according to described procedures (cfr. ref. Jenkins et al., “A soluble active mutant of HIV-1 integrase”, J. Biol. Chem. 271 ([…]), 7712-7718). HPLC-purified oligodeoxynucleotides were obtained from Proligo, and used for preparation of the viral DNA substrate and target DNA.
INb-1C is 5′-biotinylated, INT5 and INT6 are at the 3′-end labeled with FITC. INb-1C and IN-1NC correspond to the U5 end of the HIV-1 LTR. The DNA substrate for the integrase reactions was made by annealing INb-1C and IN-1NC. An equimolar mixture of INb-1C and IN-1NC was heated shortly at 95° C. in the presence of 100 mM NaCl and allowed to cool slowly to room temperature. In the same way, INT5 and INT6 were annealed to produce a target DNA molecule.
The integration strand transfer reactions were performed in the following way:
20 nM biotinylated DNA substrate INb-1C/IN-1NC was pre-incubated with 300 nM HIV-integrase at 37° C. for 5 min, to allow the cleavage reaction to occur. The candidate compounds and 50 nM target DNA INT5/INT6 were added to the reaction mix containing 20 mM Hepes pH 7.5, 25 mM NaCl, 5 mM MnCl2, 2 mM DTT, and 50 μg/ml BSA, and incubated for 2 h at 37° C. The reaction mix was transferred to streptavidin-coated plates (Exiqon), which were prewashed (three times) with 5×SSCT, and incubated for 1 h at room temperature to allow capture of the biotinylated viral DNA/target DNA complex. Plates were washed three times with 2×SSCT buffer, and anti-FITC POD-coupled antibody (Roche) was added and incubated for 1 h at room temperature to detect integrated FITC-labeled target DNA. After a final washing step with PBST (5 times), BM chemiluminescent POD-substrate (Roche) was added, and luminescence was read out.
The table below list the pIC50 values for those compounds tested in the enzymatic integrase assay. The pIC50 is expressed in Molar units and is the value according to the following formula: pIC50=−log IC50
wherein the IC50 value is the drug concentration at which 50% of the enzyme or viral activity is inhibited.
`Cc1ccc(CN2C(=O)c3c(c(O)c4nccnc4c3O)C2=O)cc1` [Compound 3, 5,9-Dihydroxy-7-(4-methyl-benzyl)-pyrrolo[3,4-g]quinoxaline-6,8-dione]: the IC50 was 1580 nM.
The same measure, in the same setting: the same measure for `O=C1c2c(c(O)c3nccnc3c2O)C(=O)N1Cc1ccc(Br)cc1` [Compound 4, 7-(4-Bromo-benzyl)-5,9-dihydroxy-pyrrolo[3,4-g]quinoxaline-6,8-dione]: 219 nM.
On the same count and under the same terms, the same measure for `O=C1c2c(c(O)c3ncccc3c2O)C(=O)N1Cc1ccc2c(c1)OCO2` [Compound 5, 7-Benzo[1,3]dioxol-5-ylmethyl-5,9-dihydroxy-pyrrolo[3,4-g]quinoline-6,8-dione]: 5620 nM; for `O=C1c2c(c(O)c3nccnc3c2O)C(=O)N1Cc1ccc(Oc2ccccc2)cc1` [Compound 7, 5,9-Dihydroxy-7-(4-phenoxy-benzyl)-pyrrolo[3,4-g]quinoxaline-6,8-dione]: 4900 nM; for `Cc1ccc2c(O)c3c(c(O)c2n1)C(=O)N(C(C)c1ccccc1)C3=O` (stereo not shown) [Compound 8, 5,9-Dihydroxy-2-methyl-7-(1-phenyl-ethyl)-pyrrolo[3,4-g]quinoline-6,8-dione]: 10700 nM.
On the same count and under the same terms, the same measure for `O=C1c2c(c(O)c3nccnc3c2O)C(=O)N1c1ccc2c(c1)OCO2` [Compound 10, 7-Benzo[1,3]dioxol-5-yl-5,9-dihydroxy-pyrrolo[3,4-g]quinoxaline-6,8-dione]: 10000 nM.
Turning to `O=C1c2c(c(O)c3ccccc3c2O)C(=O)N1Cc1ccc(F)cc1` [Compound 11, 2-(4-Fluoro-benzyl)-4,9-dihydroxy-benzo[f]isoindole-1,3-dione], the IC50 is over 100000 nM.
The same measure, in the same setting: the same measure for `O=C1c2c(c(O)c3ccccc3c2O)C(=O)N1CCc1ccccc1` [Compound 12, 4,9-Dihydroxy-2-phenethyl-benzo[f]isoindole-1,3-dione]: over 100000 nM; for `O=C1c2c(c(O)c3c(F)cccc3c2O)C(=O)N1Cc1ccc(F)cc1` [Compound 13, 5-Fluoro-2-(4-fluoro-benzyl)-4,9-dihydroxy-benzo[f]isoindole-1,3-dione]: over 100000 nM; for `O=C1c2c(c(O)c3nccnc3c2O)C(=O)N1CCc1ccccc1` [Compound 14, 5,9-Dihydroxy-7-phenethyl-pyrrolo[3,4-g]quinoxaline-6,8-dione]: 2040 nM.
Still for that read-out and setting: with `C[C@H](c1ccccc1)N1C(=O)c2c(c(O)c3nccnc3c2O)C1=O` [Compound 15, 5,9-Dihydroxy-7-(1-(R)-phenyl-ethyl)-pyrrolo[3,4-g]quinoxaline-6,8-dione] the figure was 1050 nM; with `O=C1c2c(c(O)c3nccnc3c2O)C(=O)N1Cc1cccc(F)c1` [Compound 16, 7-(3-Fluoro-benzyl)-5,9-dihydroxy-pyrrolo[3,4-g]quinoxaline-6,8-dione], 562 nM.
As for `COc1ccc(CN2C(=O)c3c(c(O)c4nccnc4c3O)C2=O)cc1` [Compound 17, 5,9-Dihydroxy-7-(4-methoxy-benzyl)-pyrrolo[3,4-g]quinoxaline-6,8-dione], the IC50 is 562 nM.
As to `O=C1c2c(c(O)c3nccnc3c2O)C(=O)N1Cc1cccc(CN2C(=O)c3c(c(O)c4nccnc4c3O)C2=O)c1` [Compound 18, 7-[3-(5,9-Dihydroxy-6,8-dioxo-6,8-dihydro-pyrrolo[3,4-g]quinoxalin-7-ylmethyl)-benzyl]-5,9-dihydroxy-pyrrolo[3,4-g]quinoxaline-6,8-dione], the IC50 was 7590 nM.
Same read-out and setting: with `Cc1ccc2c(O)c3c(c(O)c2n1)C(=O)N(CCc1ccccc1)C3=O` [Compound 19, 5,9-Dihydroxy-2-methyl-7-phenethyl-pyrrolo[3,4-g]quinoline-6,8-dione] the figure was 4170 nM.
Consider `Cc1ccc2c(O)c3c(c(O)c2n1)C(=O)N(Cc1ccc2c(c1)OCO2)C3=O` [Compound 20, 7-Benzo[1,3]dioxol-5-ylmethyl-5,9-dihydroxy-2-methyl-pyrrolo[3,4-g]quinoline-6,8-dione], for which the IC50 was 2140 nM.
Turning to `Cc1ccc2c(O)c3c(c(O)c2n1)C(=O)N(Cc1cccc(F)c1)C3=O` [Compound 21, 7-(3-Fluoro-benzyl)-5,9-dihydroxy-2-methyl-pyrrolo[3,4-g]quinoline-6,8-dione], the IC50 was 871 nM.
Same read-out and setting: the same measure for `Cc1ccc2c(O)c3c(c(O)c2n1)C(=O)N(Cc1ccc(F)cc1)C3=O` [Compound 22, 7-(4-Fluoro-benzyl)-5,9-dihydroxy-2-methyl-pyrrolo[3,4-g]quinoline-6,8-dione]: 398 nM.
The same measure, in the same setting: the same measure for `COc1ccc(CN2C(=O)c3c(c(O)c4nc(C)ccc4c3O)C2=O)cc1` [Compound 23, 5,9-Dihydroxy-7-(4-methoxy-benzyl)-2-methyl-pyrrolo[3,4-g]quinoline-6,8-dione]: 1480 nM.
Regarding `O=C1c2c(c(O)c3ncccc3c2O)C(=O)N1CCc1ccccc1` [Compound 24, 5,9-Dihydroxy-7-phenethyl-pyrrolo[3,4-g]quinoline-6,8-dione], the IC50 is 2510 nM.
Regarding `CC(c1ccccc1)N1C(=O)c2c(c(O)c3nccnc3c2O)C1=O` (stereo not shown) [Compound 25, 5,9-Dihydroxy-7-(1-phenyl-ethyl)-pyrrolo[3,4-g]quinoxaline-6,8-dione], the half-maximal inhibitory concentration (IC50) is 2040 nM.
The same measure, in the same setting: the same measure for `O=C1c2c(c(O)c3nccnc3c2O)C(=O)N1CC1CCCCC1` [Compound 26, 7-Cyclohexylmethyl-5,9-Dihydroxy-pyrrolo[3,4-g]quinoxaline-6,8-dione]: 2190 nM.
The same measure, in the same setting: with `O=C1c2c(c(O)c3nccnc3c2O)C(=O)N1Cc1cccc2ccccc12` [Compound 27, 5,9-Dihydroxy-7-naphthalen-1-ylmethyl-pyrrolo[3,4-g]quinoxaline-6,8-dione] the figure was 1410 nM.
On the same count and under the same terms, the same measure for `O=C1c2c(c(O)c3nccnc3c2O)C(=O)N1CCN1CCOCC1` [Compound 28, 5,9-Dihydroxy-7-(2-morpholine-4-yl-ethyl)-pyrrolo[3,4-g]quinoxaline-6,8-dione]: 66100 nM; for `O=C1c2c(c(O)c3nccnc3c2O)C(=O)N1Cc1ccncc1` [Compound 29, 5,9-Dihydroxy-7-pyridin-4-ylmethyl-pyrrolo[3,4-g]quinoxaline-6,8-dione]: 6760 nM.
As for `Cc1ccc2c(O)c3c(c(O)c2n1)C(=O)N(c1ccccc1)C3=O` [Compound 30, 5,9-Dihydroxy-2-methyl-7-phenyl-pyrrolo[3,4-g]quinoline-6,8-dione], the IC50 was 24000 nM.
Turning to `O=C1c2c(c(OCc3ccccc3)c3nccnc3c2O)C(=O)N1Cc1ccc2c(c1)OCO2` [Compound 31, 7-Benzo[1,3]dioxol-5-ylmethyl-5-benzyloxy-9-hydroxy-pyrrolo[3,4-g]quinoxaline-6,8-dione], the IC50 is over 100000 nM.
Turning to `O=C1c2c(c(O)c3nccnc3c2O)C(=O)N1C1CCCC1` [Compound 32, 7-Cyclopentyl-5,9-dihydroxy-pyrrolo[3,4-g]quinoxaline-6,8-dione], the IC50 is 10500 nM.
In the case of `O=C1c2c(c(O)c3nccnc3c2O)C(=O)N1c1ccc(F)cc1` [Compound 33, 7-(4-Fluoro-phenyl)-5,9-dihydroxy-pyrrolo[3,4-g]quinoxaline-6,8-dione], the IC50 was 21900 nM.
The same measure, in the same setting: the same measure for `CS(=O)(=O)c1ccc(CN2C(=O)c3c(c(O)c4nccnc4c3O)C2=O)cc1` [Compound 34, 5,9-Dihydroxy-7-(4-methanesulfonyl-benzyl)-pyrrolo[3,4-g]quinoxaline-6,8-dione]: 8710 nM; for `O=C1c2c(c(O)c3nccnc3c2O)C(=O)N1c1ccccc1Br` [Compound 35, 7-(2-Bromo-phenyl)-5,9-dihydroxy-pyrrolo[3,4-g]quinoxaline-6,8-dione]: 1820 nM; for `C#CCOc1c2c(c(O)c3nccnc13)C(=O)N(Cc1ccc3c(c1)OCO3)C2=O` [Compound 36, 7-Benzo[1,3]dioxol-5-ylmethyl-5-hydroxy-9-prop-2-ynyloxy-pyrrolo[3,4-g]quinoxaline-6,8-dione]: 18200 nM.
Still for that read-out and setting: with `CC(C)CCOc1c2c(c(O)c3nccnc13)C(=O)N(Cc1ccc3c(c1)OCO3)C2=O` [Compound 37, 7-Benzo[1,3]dioxol-5-ylmethyl-5-hydroxy-9-(3-methyl-butoxy)-pyrrolo[3,4-g]quinoxaline-6,8-dione] the figure was 1480 nM.

The same assay, now with this note: pIC50=−log IC50, expressed in Molar units; strand transfer, 5 mM MnCl2, 2 h at 37° C.
On to `CCOC(=O)C(=O)Oc1c2c(c(O)c3nccnc13)CN(Cc1ccc3c(c1)OCO3)C2` [Compound 6, Oxalic acid 7-benzo[1,3]dioxol-5-ylmethyl-9-hydroxy-6,8-dihydro-6H-pyrrolo[3,4-g]quinoxalin-5-yl ester ethyl ester], for which the pIC50 was 5.50.
